{"source": "patent US11141456B2", "about": "“Therapeutic compositions including frataxin, lactoferrin, and mitochondrial energy generating enzymes, and uses thereof” (Stealth BioTherapeutics Corp, priority 2014, dated 2021)", "origin": "cited, not measured here", "tested_on": "several mammalian cell types", "details": "energy-independent manner; cited from earlier work"}
{"substance": "2′,6′-Dmt-D-Arg-Phe-Lys-NH2", "values": [{"measurement": "penetration of the plasma membrane", "result": "readily penetrates the plasma membrane"}]}
